From the NIST ThermoML archive (doi:10.1021/je300358u)

How the values were obtained:
[1] = 101 kPa, Liquid
[2] = xn = mol fraction of the nth substance listed; conditions: 101 kPa, Liquid
[3] = mn = molality of the nth substance listed, in mol/kg; conditions: 101 kPa, Liquid

CN(C)C=O [dimethylformamide]
[1]
Conditions	mass density [kg/m3]
293.15 K	948.742
298.15 K	943.976
303.15 K	939.201
308.15 K	934.425

CN(C)C=O [dimethylformamide] + O
mass density [kg/m3], [2]
Conditions	293.15 K	298.15 K	303.15 K	308.15 K
x2 = 0	948.742	943.976	939.201	934.425
x2 = 0.1	953.736	948.984	944.221	939.444
x2 = 0.2	959.305	954.568	949.818	945.04
x2 = 0.3	965.7	960.987	956.248	951.488
x2 = 0.4	972.992	968.301	963.582	958.821
x2 = 0.5	980.854	976.205	971.522	966.807
x2 = 0.6	988.587	984.021	979.424	974.79
x2 = 0.7	995.526	991.172	986.773	982.324
x2 = 0.8	999.822	995.944	992.004	988.003
x2 = 0.9	999.742	996.891	993.926	990.852
x2 = 0.92	999.208	996.65	993.962	991.147
x2 = 0.94	998.608	996.378	993.992	991.46
x2 = 0.96	998.059	996.181	994.123	991.894
x2 = 0.98	997.768	996.264	994.548	992.639

NC(N)=O [urea] + CN(C)C=O
mass density [kg/m3], [3]
Conditions	m1 = 0.02524	m1 = 0.05973	m1 = 0.07556	m1 = 0.1157	m1 = 0.1479	m1 = 0.1749	m1 = 0.2003	m1 = 0.2305
293.15 K	949.268	949.989	950.317	951.155	951.829	952.395	952.924	953.553
298.15 K	944.504	945.228	945.556	946.396	947.074	947.644	948.173	948.805
303.15 K	939.731	940.469	940.781	941.642	942.307	942.893	943.423	944.061
308.15 K	934.955	935.685	936.015	936.861	937.543	938.117	938.649	939.284

NC(N)=O [urea] + O
mass density [kg/m3], [3]
Conditions	m1 = 0.02557	m1 = 0.05326	m1 = 0.07468	m1 = 0.09388	m1 = 0.1236	m1 = 0.1442	m1 = 0.1762	m1 = 0.2005
293.15 K	998.624	999.077	999.427	999.747	1000.23	1000.57	1001.1	1001.5
298.15 K	997.458	997.903	998.251	998.559	999.04	999.367	999.891	1000.28
303.15 K	996.057	996.499	996.841	997.145	997.618	997.949	998.455	998.84
308.15 K	994.437	994.868	995.206	995.501	995.97	996.288	996.793	997.172
